Laboratory results reported in patent US20250059179A1, “Heterocyclic Compounds and Methods of Use” (AMGEN INC., priority 2021, published 2025).
pIC50: −log10 of the molar value.

How the values were obtained:
[1] = biological target: His-tagged KRAS G12D protein (Homo sapiens, UniProt P01116, G12D); assay: KRAS G12D TR-FRET Assay; assay type: binding; settings: biotinylated KRPep-2d substrate, 10 μM GDP;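 also: europium anti-His antibody paired with streptavidin-d2 as FRET partners, initial 30 min incubation, then peptide 1 h and detection reagents 1 h, all at room temperature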
[2] = biological target: GDP-bound KRAS protein (aa 1-169), containing both G12D and C118A amino acid substitutions (Homo sapiens, UniProt P01116, C118A/G12D); assay: KRAS G12D Coupled Nucleotide Exchange Assay; assay type: biochemical; settings: 2 h compound pre-incubation; SOS-mediated nucleotide exchange, cRAF AlphaScreen readout;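 also: IC50 obtained by fitting the AlphaScreen signal with a four-parameter logistic curve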
[3] = test system: Phosphorylation of ERK1/2 in A-427 cells; assay: Phospho-ERK1/2 MSD Assay; assay type: cell-based; settings: Homo sapiens, A-427, 2 h, 2 h compound treatment, read-out: pERK (A427 cells) IC50
Experimental: A-427 (ATCC® HTB-53™) cells were cultured in RPMI 1640 Medium (ThermoFisher Scientific 11875093) containing 10% fetal bovine serum (ThermoFisher Scientific 16000044) and 1× penicillin-streptomycin-glutamine (ThermoFisher Scientific 10378016). Sixteen hours prior to compound treatment, A-427 cells were seeded in 96-well cell culture plates at a density of 25,000 cells/well and incubated at 37° C., 5% CO2. A compound dose-response titration was diluted in growth media, added to appropriate wells of a cell culture plate, and then incubated at 37° C., 5% CO2 for 2 h. Following compound treatment, cells were washed with ice-cold Dulbecco's phosphate-buffered saline, no Ca^2+ or Mg^2+ (ThermoFisher Scientific 14190144), and then lysed in RIPA buffer (50 mM Tris-HCl pH 7.5, 1% Igepal, 0.5% sodium deoxycholate, 150 mM NaCl, and 0.5% sodium dodecyl sulfate) containing protease inhibitors (Roche 4693132001) and phosphatase inhibitors (Roche 4906837001). Phosphorylation of ERK1/2 in compound-treated lysates was assayed using Phospho-ERK1/2 Whole Cell Lysate kits (Meso Scale Discovery K151DWD) according to the manufacturer's protocol. Assay plates were read on a Meso Scale Discovery Sector Imager 6000, and data were analyzed using a 4-parameter logistic model to calculate IC50 values.

His-tagged KRAS G12D protein, sequence (P01116 1-188 isoform P01116-2 G12D): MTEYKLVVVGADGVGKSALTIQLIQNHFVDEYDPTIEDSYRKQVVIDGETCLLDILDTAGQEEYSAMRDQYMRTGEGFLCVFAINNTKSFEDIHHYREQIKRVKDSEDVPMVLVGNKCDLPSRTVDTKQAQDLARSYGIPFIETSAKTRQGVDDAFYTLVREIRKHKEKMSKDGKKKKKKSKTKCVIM
GDP-bound KRAS protein (aa 1-169), containing both G12D and C118A amino acid substitutions, sequence (P01116 1-169 isoform P01116-2 G12D/C118A): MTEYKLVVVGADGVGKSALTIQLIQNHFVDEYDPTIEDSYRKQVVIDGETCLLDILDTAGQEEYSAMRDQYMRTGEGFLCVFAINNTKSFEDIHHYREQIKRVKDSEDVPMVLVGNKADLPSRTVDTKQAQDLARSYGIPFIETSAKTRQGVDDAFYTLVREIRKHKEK

Row | SMILES | pIC50 [1] | Avg 2 h Coupled Exchange IC50 [2] [nM] | pIC50 [3]
1 | Nc1nc2c(-c3c(Cl)cc4c(N5[C@@H]6CNC[C@H]5COC6)nc(OCC56CCCN5CC(F)(F)C6)nc4c3F)ccc(F)c2s1 (stereo partly drawn) [Example 126, 4-(4-((1R,5S)-3-oxa-7,9-diazabicyclo[3.3.1]nonan-9-yl)-6-chloro-2-((2,2-difluorotetrahydro-1H-pyrrolizin-7a(5H)-yl)methoxy)-8-fluoroquinazolin-7-yl)-7-fluorobenzo[d]thiazol-2-amine] | 7.92 | 10 | 6.05
2 | Nc1nc2c(-c3c(Cl)cc4c(N5CCNCC5)nc(OC[C@]56CCCN5[C@@H](CO)CC6)nc4c3F)cccc2s1 [Example 50, ((3R,7aR)-7a-(((7-(2-aminobenzo[d]thiazol-4-yl)-6-chloro-8-fluoro-4-(piperazin-1-yl)quinazolin-2-yl)oxy)methyl)hexahydro-1H-pyrrolizin-3-yl)methanol] | 7.26 | 42 | 4.69
3 | N#Cc1c(OCC23CCCN2C[C@H](F)C3)nc2c(F)c(-c3ccc(F)c4sc(N)nc34)c(Cl)cc2c1N1[C@@H]2CC[C@H]1CNC2 (stereo partly drawn) [Example 159, 7-(2-amino-7-fluorobenzo[d]thiazol-4-yl)-4-((1R,5S)-3,8-diazabicyclo[3.2.1]octan-8-yl)-6-chloro-8-fluoro-2-(((2R)-2-fluorotetrahydro-1H-pyrrolizin-7a(5H)-yl)methoxy)quinoline-3-carbonitrile] | 6.76 | 88 | < 5.00
4 | CN1CC[C@@H](COc2nc(N3CCNCC3)c3cc(Cl)c(-c4cccc5sc(N)nc45)c(F)c3n2)C1 [Example 53, 4-(6-chloro-8-fluoro-2-(((R)-1-methyl-pyrrolidin-3-yl)methoxy)-4-(piperazin-1-yl)quinazolin-7-yl)benzo[d] thiazol-2-amine] | 6.38 | 75 | < 4.60
5 | Nc1nc2c(-c3c(Cl)cc4c(N5C[C@H]6C[C@@H](C5)N6)nc(OCC56CCCN5CC(F)(F)C6)nc4c3F)ccc(F)c2s1 (stereo partly drawn) [Example 14, 4-(4-((1R,5S)-3,6-diazabicyclo[3.1.1]heptan-3-yl)-6-chloro-2-((2,2-difluorotetrahydro-1H-pyrrolizin-7a(5H)-yl)methoxy)-8-fluoroquinazolin-7-yl)-7-fluorobenzo[d] thiazol-2-amine] | 7.92 | 14 | 5.82
6 | C[C@@]1(COc2nc(N3CCNCC3)c3cc(Cl)c(-c4cccc5sc(N)nc45)c(F)c3n2)CCCN1 [Example 73, 4-(6-chloro-8-fluoro-2-(((S)-2-methyl-pyrrolidin-2-yl)methoxy)-4-(piperazin-1-yl)quinazolin-7-yl)benzo[d] thiazol-2-amine] | 7.22 | 36 | < 5.00
7 | CN1CC[C@H]1COc1nc(N2CCNCC2)c2cc(Cl)c(-c3cccc4sc(N)nc34)c(F)c2n1 [Example 52, 4-(6-chloro-8-fluoro-2-(((S)-1-methylazetidin-2-yl)methoxy)-4-(piperazin-1-yl)quinazolin-7-yl)benzo[d] thiazol-2-amine] | 6.87 | 59 | 4.80
8 | Nc1nc2c(-c3c(Cl)cc4c(N5CCNCC5)nc(OC[C@@H]5C[C@@H](F)CN5)nc4c3F)cccc2s1 [Example 47, 4-(6-chloro-8-fluoro-2-(((2S,4R)-4-fluoro-pyrrolidin-2-yl)methoxy)-4-(piperazin-1-yl)quinazolin-7-yl)benzo[d] thiazol-2-amine] | 7.09 | 26 | < 4.60
9 | Nc1nc2c(-c3c(Cl)cc4c(N5CC6CCC(C5)NC6)nc(OC[C@@]56CCCN5C[C@H](F)C6)nc4c3F)ccc(F)c2s1 (stereo partly drawn) [Example 31, 4-(4-(3,6-diazabicyclo[3.2.2]nonan-3-yl)-6-chloro-8-fluoro-2-(((2R,7aS)-2-fluorotetrahydro-1H-pyrrolizin-7a(5H)-yl)methoxy)quinazolin-7-yl)-7-fluorobenzo[d] thiazol-2-amine] | 8.22 | 5 | 5.99
10 | Nc1nc2c(-c3c(Cl)cc4c(N5[C@@H]6CC[C@H]5CNC6)nc(OCC56CCCN5CC(F)(F)C6)nc4c3F)ccc(F)c2s1 (stereo partly drawn) [Example 9, 4-(4-((1R,5S)-3,8-diazabicyclo[3.2.1]octan-8-yl)-6-chloro-2-((2,2-difluorotetrahydro-1H-pyrrolizin-7a(5H)-yl)methoxy)-8-fluoroquinazolin-7-yl)-7-fluorobenzo[d] thiazol-2-amine] | 8.15 | 9 | 6.39
11 | Nc1nc2c(-c3ccc4c(N5[C@@H]6CC[C@H]5CNC6)nc(OC[C@@]56CCCN5C[C@H](F)C6)nc4c3)ccc(F)c2s1 [Example 135, 4-(4-((1R,5S)-3,8-diazabicyclo[3.2.1]octan-8-yl)-2-(((2R,7aS)-2-fluorotetrahydro-1H-pyrrolizin-7a(5H)-yl)methoxy)quinazolin-7-yl)-7-fluorobenzo[d]thiazol-2-amine] | 6.68 | 64 | < 5.00
12 | CCc1cc2c(N3C[C@H]4CC[C@@H](C3)N4)nc(OC[C@@]34CCCN3C[C@H](F)C4)nc2c(F)c1-c1ccc(F)c2sc(N)nc12 [Example 153, 4-(4-((1R,5S)-3,8-diazabicyclo[3.2.1]octan-3-yl)-6-ethyl-8-fluoro-2-(((2R,7aS)-2-fluorotetrahydro-1H-pyrrolizin-7a(5H)-yl)methoxy)quinazolin-7-yl)-7-fluorobenzo[d]thiazol-2-amine] | 8.40 | 6 | 7.96
13 | CCc1cc2c(N3[C@@H]4CC[C@H]3CNC4)nc(OC[C@@]34CCCN3C[C@H](F)C4)nc2c(F)c1-c1ccc(F)c2sc(N)nc12 [Example 154, 4-(4-((1R,5S)-3,8-diazabicyclo[3.2.1]octan-8-yl)-6-ethyl-8-fluoro-2-(((2R,7aS)-2-fluorotetrahydro-1H-pyrrolizin-7a(5H)-yl)methoxy)quinazolin-7-yl)-7-fluorobenzo[d]thiazol-2-amine] | 8.40 | 4 | 7.26
14 | CN1CCC[C@H]1COc1nc(N2CC3CC(C2)N3)c2cc(Cl)c(-c3cccc4sc(N)nc34)c(F)c2n1 [Example 5, 4-(4-(3,6-diazabicyclo[3.1.1]heptan-3-yl)-6-chloro-8-fluoro-2-(((S)-1-methylpyrrolidin-2-yl)methoxy)quinazolin-7-yl)benzo[d]thiazol-2-amine] | 8.00 | 5 | 5.58
15 | Nc1nc2c(-c3c(Cl)cc4c(N5CCNC6CC65)nc(OC[C@@]56CCCN5C[C@H](F)C6)nc4c3F)ccc(F)c2s1 (stereo partly drawn) [Example 39, 4-(4-(2,5-diazabicyclo[4.1.0]heptan-2-yl)-6-chloro-8-fluoro-2-(((2R,7aS)-2-fluorotetrahydro-1H-pyrrolizin-7a(5H)-yl)methoxy)quinazolin-7-yl)-7-fluorobenzo[d] thiazol-2-amine] | 7.96 | 14 | 6.01
